This is an account of results in patent US8906925B2, “Pyrido[4,3-B]indoles containing rigid moieties” (Medivation Technologies, Inc., priority 2008, dated 2014).

The target in one experiment is histamine receptor H1 (Homo sapiens, UniProt P35367). The experiment is described as follows: Histamine H1 radioligand binding ([3H]Pyrilamine). The conditions noted are these: for inhibition at 1 µM: read-out: Histamine Binding (1 μM) H1, percent inhibition of specific binding, 1 μM. The essentials:
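Values are percent inhibition of specific [3H]pyrilamine (1.2 nM) binding with compounds at ≤1 μM (1% DMSO vehicle); 180 min incubation at 25 °C, pH 7.4 Tris buffer, on CHO-expressed human H1 receptor; 1 μM pyrilamine defined nonspecific binding, bound ligand counted after filtration.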

Experiment [1] concerns the target T1, human recombinant adrenergic α1D receptor (Homo sapiens, UniProt P25100).
T1 construct: expressed in transfected cells; host or cells: human embryonic kidney (HEK-293) cells
T1 sequence (P25100 1-572): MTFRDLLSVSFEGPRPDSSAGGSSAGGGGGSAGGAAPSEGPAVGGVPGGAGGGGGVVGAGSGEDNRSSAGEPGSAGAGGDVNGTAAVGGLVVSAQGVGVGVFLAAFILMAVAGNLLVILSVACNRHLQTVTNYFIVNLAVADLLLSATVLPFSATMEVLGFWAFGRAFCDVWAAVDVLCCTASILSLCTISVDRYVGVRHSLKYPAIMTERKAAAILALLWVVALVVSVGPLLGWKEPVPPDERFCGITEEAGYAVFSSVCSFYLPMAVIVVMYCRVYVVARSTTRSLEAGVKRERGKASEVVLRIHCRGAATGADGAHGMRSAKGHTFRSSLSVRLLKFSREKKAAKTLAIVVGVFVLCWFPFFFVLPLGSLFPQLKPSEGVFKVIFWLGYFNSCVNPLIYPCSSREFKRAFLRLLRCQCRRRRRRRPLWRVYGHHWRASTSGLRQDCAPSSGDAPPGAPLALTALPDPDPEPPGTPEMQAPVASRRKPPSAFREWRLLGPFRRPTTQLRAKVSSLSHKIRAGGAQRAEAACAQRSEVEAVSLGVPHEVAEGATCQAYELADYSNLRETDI
In words: Adrenergic α1D radioligand binding ([3H]Prozosin). The conditions noted are these: compound at 1 μM. As to the method: Compounds of invention were incubated with 0.6 nM [^3H]Prozosin for 60 min. at 25° C. Non-specific binding was estimated in the presence of 10 μM phentolamine. Receptor proteins were filtered and washed, the filters were then counted to determine [^3H]Prozosin specifically bound. Compounds were screened at 1 μM or lower, using 1% DMSO as vehicle. Biochemical assay results are presented as the percent inhibition of specific binding in Table 9.

The target in experiment [2] is human dopamine D2L receptor (Homo sapiens, UniProt P14416). In words: Dopamine D2L radioligand binding ([3H]Spiperone). The conditions noted are these: compound at 1 μM. The text has this: Non-specific binding was estimated in the presence of […] Haloperidol. Receptor proteins were filtered and washed, the filters were then counted to determine [^3H]Spiperone specifically bound. […] Biochemical assay results are presented as the percent inhibition of specific binding in Table 9.

Experiment [3] addresses T2, human recombinant serotonin (5-Hydroxytryptamine) 5-HT2A receptor (Homo sapiens, UniProt P28223).
T2 construct: expressed in transfected cells; host or cells: Chinese hamster ovary (CHO-K1) cells
The experiment is described as follows: Serotonin 5-HT2A radioligand binding ([3H]Ketanserin). As to the method: Compounds of the invention were incubated with 0.5 nM [^3H]Ketanserin for 60 min. at 25° C. Non-specific binding was estimated in the presence of 1 μM Mianserin. Receptor proteins were filtered and washed, the filters were then counted to determine [^3H]Ketanserin specifically bound.

Experiment [4] addresses T3, human recombinant serotonin (5-Hydroxytryptamine) 5-HT2C receptor (Homo sapiens, UniProt P28335).
T3 construct: expressed in transfected cells; host or cells: Chinese hamster ovary (CHO-K1) cells
T3 sequence (P28335 33-458): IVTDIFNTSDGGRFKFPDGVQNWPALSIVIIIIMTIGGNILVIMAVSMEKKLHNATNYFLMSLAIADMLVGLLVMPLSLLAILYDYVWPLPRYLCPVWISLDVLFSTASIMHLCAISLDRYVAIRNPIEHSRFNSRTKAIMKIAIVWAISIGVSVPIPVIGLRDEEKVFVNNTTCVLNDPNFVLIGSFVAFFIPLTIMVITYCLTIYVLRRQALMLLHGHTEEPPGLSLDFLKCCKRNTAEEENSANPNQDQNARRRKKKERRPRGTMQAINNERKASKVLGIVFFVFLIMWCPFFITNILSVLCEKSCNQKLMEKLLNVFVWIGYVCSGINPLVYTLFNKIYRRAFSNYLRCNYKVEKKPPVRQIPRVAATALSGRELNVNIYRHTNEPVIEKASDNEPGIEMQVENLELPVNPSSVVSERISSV
The experiment is described as follows: Serotonin 5-HT2C radioligand binding ([3H]Mesulergine). The conditions noted are these: read-out: Inhibition of ligand binding, Serotonin 5-HT2C (percent inhibition of specific binding); for inhibition at 0.1 µM: compound at 0.1 μM; for inhibition at 1 µM: compound at 1 μM. The essentials: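 Compounds tested at 1 μM or lower (1% DMSO vehicle) for displacement of 1 nM [3H]Mesulergine over 60 min at 25° C. Specific binding determined by filtration counting, with 1 μM Mianserin defining non-specific binding; values are percent inhibition.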

Where [5] appears, read: percent inhibition of specific binding, read-out: Inhibition of ligand binding, Adrenergic α1D.
Where [6] appears, read: percent inhibition of specific binding, read-out: Inhibition of ligand binding, Dopamine D2L.
Where [7] appears, read: read-out: Inhibition of ligand binding, Serotonin 5-HT2A (percent inhibition of specific binding), compound at 1 μM.
Where [8] appears, read: read-out: Inhibition of ligand binding, Serotonin 5-HT2A (percent inhibition of specific binding), compound at 0.1 μM.

Several values for one entry are separate records, joined by “and”; a condition that tells them apart may be missing. Equal entries are not always repeated. Where two headings read alike, the source gives them in different places.

Sequence of human dopamine D2L receptor (P14416 whole entry): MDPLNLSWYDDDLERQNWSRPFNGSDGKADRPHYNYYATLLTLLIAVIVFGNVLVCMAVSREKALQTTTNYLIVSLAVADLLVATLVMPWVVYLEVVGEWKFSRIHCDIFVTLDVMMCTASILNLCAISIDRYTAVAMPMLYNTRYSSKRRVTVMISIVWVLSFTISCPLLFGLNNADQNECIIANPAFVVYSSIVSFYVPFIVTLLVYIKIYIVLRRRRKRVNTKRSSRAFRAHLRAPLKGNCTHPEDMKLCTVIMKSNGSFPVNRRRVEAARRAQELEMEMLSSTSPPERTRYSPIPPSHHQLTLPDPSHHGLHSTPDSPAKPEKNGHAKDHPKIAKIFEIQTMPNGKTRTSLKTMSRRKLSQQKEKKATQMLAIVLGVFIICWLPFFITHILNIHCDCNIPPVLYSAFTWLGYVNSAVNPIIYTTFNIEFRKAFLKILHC
Sequence of histamine receptor H1 (P35367 whole entry): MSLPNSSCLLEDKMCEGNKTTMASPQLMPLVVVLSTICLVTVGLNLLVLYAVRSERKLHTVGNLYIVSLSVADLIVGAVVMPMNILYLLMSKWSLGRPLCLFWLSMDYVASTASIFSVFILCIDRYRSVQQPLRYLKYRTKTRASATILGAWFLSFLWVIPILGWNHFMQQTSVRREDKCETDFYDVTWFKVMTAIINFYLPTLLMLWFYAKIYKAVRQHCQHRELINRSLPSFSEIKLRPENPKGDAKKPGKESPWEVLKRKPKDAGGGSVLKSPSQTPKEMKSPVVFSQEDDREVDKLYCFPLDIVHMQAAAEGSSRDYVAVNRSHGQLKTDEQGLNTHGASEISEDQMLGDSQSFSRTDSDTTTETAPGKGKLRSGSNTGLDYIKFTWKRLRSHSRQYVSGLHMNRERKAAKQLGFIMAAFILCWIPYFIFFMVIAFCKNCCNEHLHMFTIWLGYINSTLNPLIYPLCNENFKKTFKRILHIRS
T2 sequence (P28223 whole entry): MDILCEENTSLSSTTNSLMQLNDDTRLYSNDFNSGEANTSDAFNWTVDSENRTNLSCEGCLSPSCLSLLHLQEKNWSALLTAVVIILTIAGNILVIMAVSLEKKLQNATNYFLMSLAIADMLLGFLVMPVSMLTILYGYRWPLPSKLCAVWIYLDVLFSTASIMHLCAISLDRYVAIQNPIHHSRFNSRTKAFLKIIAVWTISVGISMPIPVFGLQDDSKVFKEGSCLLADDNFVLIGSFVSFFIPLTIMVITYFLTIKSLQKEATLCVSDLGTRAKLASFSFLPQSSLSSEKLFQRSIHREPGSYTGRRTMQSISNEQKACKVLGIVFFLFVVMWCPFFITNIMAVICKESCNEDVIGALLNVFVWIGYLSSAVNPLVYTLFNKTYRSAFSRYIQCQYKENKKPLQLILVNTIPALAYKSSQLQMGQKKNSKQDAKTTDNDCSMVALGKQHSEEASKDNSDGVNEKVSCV

In general, inhibition refers to the change of the read-out against control, counted positive when it falls. For `C/C(=C\n1c2c(c3cc(Cl)ccc31)CN(C)CC2)c1ccc(F)cc1` [Compound 83, (E)-8-chloro-5-(2-(4-fluorophenyl)prop-1-enyl)-2,3,4,5-tetrahydro-2-methyl-1H-pyrido[4,3-b]indole], at histamine receptor H1, the “Histamine Binding (1 μM) H1, percent inhibition of specific binding” value is 60% and 79% and 84%. Moreover, the inhibition at 1 µM in experiment [1] (setting [5]) stood at 96%; in experiment [2] (setting [6]), 98%; in experiment [3] (compound at 1 μM, read-out: Inhibition of ligand binding, Serotonin 5-HT2A (percent inhibition of specific binding)), 99%; in experiment [4], 98%. Moreover, the inhibition at 0.1 µM turned out to be 98% in experiment [3] (compound at 0.1 μM, read-out: Inhibition of ligand binding, Serotonin 5-HT2A (percent inhibition of specific binding)) and 100% in experiment [4].
With `CCCC/C(=C\n1c2c(c3cc(Cl)ccc31)CN(C)CC2)c1ccc(F)cc1` [Compound 208, (E)-8-chloro-5-(2-(4-fluorophenyl)hex-1-enyl)-2-methyl-2,3,4,5-tetrahydro-1H-pyrido[4,3-b]indole], the inhibition at 1 µM on histamine receptor H1 was 64%; in experiment [1] (setting [5]), 89%; in experiment [2] (setting [6]), 78%; in experiment [3] (setting [7]), 102%; in experiment [4], 102%.
Regarding `CN1CCc2c(c3cc(Cl)ccc3n2C#Cc2ccc(F)cc2)C1` [Compound No. 475, 8-chloro-5-((4-fluorophenyl)ethynyl)-2-methyl-2,3,4,5-tetrahydro-1H-pyrido[4,3-b]indole], the inhibition at 1 µM on histamine receptor H1 amounted to 34%; in experiment [1] (read-out: Inhibition of ligand binding, Adrenergic α1D (percent inhibition of specific binding)), 91%; in experiment [2] ([…] [3H]Spiperone, read-out: Inhibition of ligand binding, Dopamine D2L (percent inhibition of specific binding)), 95%; in experiment [3] (setting [7]), 99%; in experiment [4], 96%.
Turning to `C/C=C/C(=C\n1c2c(c3cc(Cl)ccc31)CN(C)CC2)c1ccc(F)cc1` [Compound 204, 8-chloro-5-((1E,3E)-2-(4-fluorophenyl)penta-1,3-dienyl)-2-methyl-2,3,4,5-tetrahydro-1H-pyrido[4,3-b]indole], the inhibition at 1 µM on histamine receptor H1 is 55%; in experiment [1] (setting [5]), 67%; in experiment [2] (setting [6]), 87%; in experiment [3] (setting [7]), 101%; in experiment [4], 102%.
The corresponding values for `CN1CCc2c(c3cc(Cl)ccc3n2CC(O)c2cccnc2)C1` (stereo not shown) [Compound 56, 2-(8-chloro-1,2,3,4-tetrahydro-2-methylpyrido[4,3-b]indol-5-yl)-1-(pyridin-3-yl)ethanol] are 90%, 43%, 4%, 68% and 38%.
Consider `CN1CCc2c(c3cc(Cl)ccc3n2/C=C(\c2ccc(F)cc2)C2CC2)C1` [Compound 203, (Z)-8-chloro-5-(2-cyclopropyl-2-(4-fluorophenyl)vinyl)-2-methyl-2,3,4,5-tetrahydro-1H-pyrido[4,3-b]indole], for which, on histamine receptor H1, the “Histamine Binding (1 μM) H1, percent inhibition of specific binding” value was determined as 72%. In addition, the inhibition at 1 µM on histamine receptor H1 was found to be 64%; in experiment [1] (setting [5]) it was 89%; in experiment [2] (setting [6]) it was 72%; in experiment [3] (setting [7]) it was 100%; in experiment [4], 98%. Also, the “Inhibition of ligand binding, Dopamine D2L” value in experiment [2] (percent inhibition of specific binding, 1 µM) was 78%. The values for the inhibition at 0.1 µM in experiment [3] (setting [8]) and in experiment [4] were 98% and 101%, respectively.
As for `CN1CCc2c(c3cc(Cl)ccc3n2C/C=C/c2ccncc2)C1` [Compound 127, 8-chloro-2,3,4,5-tetrahydro-2-methyl-5-((E)-3-(pyridin-4-yl)allyl)-1H-pyrido[4,3-b]indole], the inhibition at 1 µM worked out at 100% on histamine receptor H1; 46% in experiment [1] (setting [5]); 10% in experiment [2] (setting [6]); 84% in experiment [3] (setting [7]); 72% in experiment [4].
The corresponding values for `Cc1ccc2c(c1)c1c(n2CC(C)(O)c2cccnc2)CCN(C)C1` (stereo not shown) [Compound 60, 1-(1,2,3,4-tetrahydro-2,8-dimethylpyrido[4,3-b]indol-5-yl)-2-(pyridin-3-yl)propan-2-ol] are 52%, 33%, 6%, 78% and 86%.
`COc1ccc(C(C)(O)Cn2c3c(c4cc(C)ccc42)CN(C)CC3)cc1` (stereo not shown) [Compound 174, 1-(2,8-dimethyl-3,4-dihydro-1H-pyrido[4,3-b]indol-5(2H)-yl)-2-(4-methoxyphenyl)propan-2-ol]: the inhibition at 1 µM on histamine receptor H1 amounted to 34%; in experiment [1] (setting [5]), 57%; in experiment [2] (setting [6]) it was 34%; in experiment [3] (setting [7]) it was 97%; in experiment [4], 95%. In addition, in experiment [2] (percent inhibition of specific binding), the “Inhibition of ligand binding, Dopamine D2L” value is 34/34%. The “Inhibition of ligand binding, Serotonin 5-HT2A (percent inhibition of specific binding)” value in experiment [3] (compound at 1 μM, 1 µM) was found to be 100%. Besides, the inhibition at 0.1 µM in experiment [3] (setting [8]) and in experiment [4] was 96% in each case.
In the case of `C=C(Cn1c2c(c3cc(Cl)ccc31)CN(C)CC2)c1ccc(C)nc1` [Compound 136, 8-chloro-2,3,4,5-tetrahydro-2-methyl-5-(2-(6-methylpyridin-3-yl)allyl)-1H-pyrido[4,3-b]indole], the inhibition at 1 µM at histamine receptor H1 is 99%; in experiment [1] (setting [5]) it was 70%; in experiment [2] (setting [6]) it was 54%; in experiment [3] (setting [7]) it was 100%; in experiment [4], 93%.
The corresponding values for `C/C(=C\n1c2c(c3cc(Cl)ccc31)CN(C)CC2)c1ccccc1F` [Compound 213, (E)-8-chloro-5-(2-(2-fluorophenyl)prop-1-enyl)-2-methyl-2,3,4,5-tetrahydro-1H-pyrido[4,3-b]indole] are 69%, 76%, 76%, 98% and 102%.
With `Cc1ccc2c(c1)c1c(n2CC(C)(O)c2ccc(F)cc2)CCN(C)C1` (stereo not shown) [Compound 55, 2-(4-fluorophenyl)-1-(1,2,3,4-tetrahydro-2,8-dimethylpyrido[4,3-b]indol-5-yl)propan-2-ol], the inhibition at 1 µM at histamine receptor H1 came to 91%; in experiment [1] (setting [5]), 64%; in experiment [2] (setting [6]) it was 34%; in experiment [3] (setting [7]), 100%; in experiment [4], 93%.
